What was measured:
[1] = system: primary T cells; format: cell-based
Protocol: (§1) The non-specific cytoxicity of HF in both normal and transformed T-cells at high doses was evaluated. Anti-CD3/anti-CD28 activated primary T cells were harvested 6 days after activation and cultured in the presence of IL-2 with or without HF (100 nM). As a positive control, some T cells were cultured without IL-2 to induce apoptosis (FIG. 3A). Jurkat T cells, a transformed T cell leukemia line, were cultured in complete medium with or without HF (100 nM) as indicated (FIG. 3B). Both primary and Jurkat T cells were cultured for 30 hours and programmed cell death, i.e. apoptosis, was determined by Annexin V staining and propidium iodide (PI) uptake and cells were analyzed by flow cytometry. The percent of apoptotic T cells at each time point was plotted and was defined as Annexin V^+ PI^−. […] In further experiments, titrating amounts of HF were added to primary T cells and apoptosis was determine as above at the indicated time points. At 100 nM HF, but not 30 nM or lower, generalized T-cell apoptosis was observed (FIG. 3C).

[2] = system: Jurkat T cells; assay: Apoptosis of Jurkat T cells (Annexin V / PI, flow cytometry); format: cell-based; settings: 100 nM HF, cultured for 30 hours
Protocol: as §1

[3] = system: CD4+ CD25− T cells; assay: DNA microarray transcriptional profile of T cells activated in Th17-priming conditions; format: cell-based, mouse; settings: 10 nM

O=C(CC1NCCCC1O)Cn1cnc2cc(Br)c(Cl)cc2c1=O (racemic) [HF, 7-bromo-6-chloro-3-[3-(3-hydroxy-2-piperidinyl)-2-oxopropyl]-4(3H)-quinazolinone]
HF concentration at which generalized T-cell apoptosis was not observed [1]: ≤ 30 nM | HF concentration at which generalized T-cell apoptosis was observed [1]: 100 nM | apoptosis of Jurkat T cells [2]: significant apoptosis | annotated genes differentially expressed at both time points in HF- versus MAZ1310-treated cells ([3]; 3 and 6 hours): 81 | Aars transcript fold increase, HF vs. MAZ1310 ([3]; 3 hr, Th17-priming conditions): 2.7 ± 0.4 fold | Aff1 transcript fold increase, HF vs. MAZ1310 ([3]; 3 hr, Th17-priming conditions): 2.3 ± 0.4 fold | Aldh18a1 transcript fold increase, HF vs. MAZ1310 ([3]; 3 hr, Th17-priming conditions): 2.1 ± 0.5 fold | Asns transcript fold increase, HF vs. MAZ1310 ([3]; 3 hr, Th17-priming conditions): 6.1 ± 1.2 fold | Atf3 transcript fold increase, HF vs. MAZ1310 ([3]; 3 hr, Th17-priming conditions): 3.0 ± 0.1 fold | Atf5 transcript fold increase, HF vs. MAZ1310 ([3]; 3 hr, Th17-priming conditions): 2.4 ± 0.1 fold | Cars transcript fold increase, HF vs. MAZ1310 ([3]; 3 hr, Th17-priming conditions): 2.2 ± 0.4 fold | Cd274 transcript fold increase, HF vs. MAZ1310 ([3]; 3 hr, Th17-priming conditions): 2.1 ± 0.2 fold | Cebpb transcript fold increase, HF vs. MAZ1310 ([3]; 3 hr, Th17-priming conditions): 3.9 ± 0.5 fold | Cebpg transcript fold increase, HF vs. MAZ1310 ([3]; 3 hr, Th17-priming conditions): 2.5 ± 0.5 fold | Chd2 transcript fold increase, HF vs. MAZ1310 ([3]; 3 hr, Th17-priming conditions): 2.2 ± 0.3 fold | Cldn12 transcript fold increase, HF vs. MAZ1310 ([3]; 3 hr, Th17-priming conditions): 3.2 ± 0.7 fold | Clic4 transcript fold increase, HF vs. MAZ1310 ([3]; 3 hr, Th17-priming conditions): 2.4 ± 0.2 fold | Cth transcript fold increase, HF vs. MAZ1310 ([3]; 3 hr, Th17-priming conditions): 2.2 ± 0.7 fold | Cxcl10 transcript fold increase, HF vs. MAZ1310 ([3]; 3 hr, Th17-priming conditions): 2.1 ± 0.3 fold | D8Ertd56e transcript fold increase, HF vs. MAZ1310 ([3]; 3 hr, Th17-priming conditions): 2.1 ± 0.3 fold | Ddit3 transcript fold increase, HF vs. MAZ1310 ([3]; 3 hr, Th17-priming conditions): 5.6 ± 1.1 fold | Eif4Ebp1 transcript fold increase, HF vs. MAZ1310 ([3]; 3 hr, Th17-priming conditions): 6.8 ± 1.8 fold | Gpt2 transcript fold increase, HF vs. MAZ1310 ([3]; 3 hr, Th17-priming conditions): 10.0 ± 1.2 fold | Herpud1 transcript fold increase, HF vs. MAZ1310 ([3]; 3 hr, Th17-priming conditions): 2.4 ± 0.3 fold | Icam1 transcript fold increase, HF vs. MAZ1310 ([3]; 3 hr, Th17-priming conditions): 2.0 ± 0.1 fold | Irf1 transcript fold increase, HF vs. MAZ1310 ([3]; 3 hr, Th17-priming conditions): 2.0 ± 0.3 fold | Lars transcript fold increase, HF vs. MAZ1310 ([3]; 3 hr, Th17-priming conditions): 2.3 ± 0.3 fold | Mpa2l transcript fold increase, HF vs. MAZ1310 ([3]; 3 hr, Th17-priming conditions): 2.3 ± 0.3 fold | Ncoa7 transcript fold increase, HF vs. MAZ1310 ([3]; 3 hr, Th17-priming conditions): 3.0 ± 0.3 fold | Nfkbiz transcript fold increase, HF vs. MAZ1310 ([3]; 3 hr, Th17-priming conditions): 2.0 ± 0.3 fold | Pck2 transcript fold increase, HF vs. MAZ1310 ([3]; 3 hr, Th17-priming conditions): 4.9 ± 0.8 fold | Pdcd1lg2 transcript fold increase, HF vs. MAZ1310 ([3]; 3 hr, Th17-priming conditions): 3.2 ± 0.7 fold | Phgdh transcript fold increase, HF vs. MAZ1310 ([3]; 3 hr, Th17-priming conditions): 3.8 ± 0.9 fold | Psat1 transcript fold increase, HF vs. MAZ1310 ([3]; 3 hr, Th17-priming conditions): 2.1 ± 0.5 fold | Psph transcript fold increase, HF vs. MAZ1310 ([3]; 3 hr, Th17-priming conditions): 3.5 ± 0.4 fold | Pvr transcript fold increase, HF vs. MAZ1310 ([3]; 3 hr, Th17-priming conditions): 2.0 ± 0.3 fold | Pycr1 transcript fold increase, HF vs. MAZ1310 ([3]; 3 hr, Th17-priming conditions): 4.6 ± 0.7 fold | Pycs transcript fold increase, HF vs. MAZ1310 ([3]; 3 hr, Th17-priming conditions): 2.1 ± 0.2 fold | Sars1 transcript fold increase, HF vs. MAZ1310 ([3]; 3 hr, Th17-priming conditions): 2.0 ± 0.3 fold | Sesn2 transcript fold increase, HF vs. MAZ1310 ([3]; 3 hr, Th17-priming conditions): 2.6 ± 0.3 fold | Slamf7 transcript fold increase, HF vs. MAZ1310 ([3]; 3 hr, Th17-priming conditions): 2.2 ± 0.4 fold | Slc1a4 transcript fold increase, HF vs. MAZ1310 ([3]; 3 hr, Th17-priming conditions): 3.2 ± 0.9 fold | Slc5a9 transcript fold increase, HF vs. MAZ1310 ([3]; 3 hr, Th17-priming conditions): 2.4 ± 0.3 fold | Slc7a3 transcript fold increase, HF vs. MAZ1310 ([3]; 3 hr, Th17-priming conditions): 2.0 ± 0.2 fold | Slc14a1 transcript fold increase, HF vs. MAZ1310 ([3]; 3 hr, Th17-priming conditions): 2.0 ± 0.1 fold | Trib3 transcript fold increase, HF vs. MAZ1310 ([3]; 3 hr, Th17-priming conditions): 7.1 ± 2.0 fold | Trim12 transcript fold increase, HF vs. MAZ1310 ([3]; 3 hr, Th17-priming conditions): 2.4 ± 0.1 fold | Vegfa transcript fold increase, HF vs. MAZ1310 ([3]; 3 hr, Th17-priming conditions): 3.2 ± 0.2 fold | Xist transcript fold increase, HF vs. MAZ1310 ([3]; 3 hr, Th17-priming conditions): 3.5 ± 1.7 fold

— US20090123389A1, “Methods for modulating Th17 cell development in the treatment and prevention of cellulite” (priority 2007, published 2009)
